Source: patent EP0597303A2, “Cephalosporin derivatives” (priority 1992, dated 1994)
Structures can show the parent of a compound that is named as a salt. Where two headings read alike, the source gives them in different places.

Tests used:
Assay in all cases: MIC, Agar (Mueller Hinton) Dilution Method
Assay type in all cases: cell-based
[1] = test system: E. coli DC-0; details: Escherichia coli, DC0, Gram Negative
Excerpt: (§1) The in vitro activity of the compounds of formula I of the present invention as measured by the Minimum Inhibitory Concentration (MIC) in micrograms/ml utilizing the Agar (Mueller Hinton) Dilution Method against a variety of Gram-positive and Gram-negative organisms, is set forth in Table 1.

[2] = test system: E. coli 4; details: Escherichia coli
Excerpt: as §1

[3] = test system: Ps. aeruginosa 56-1B; details: Pseudomonas aeruginosa, 561B
Excerpt: as §1

[4] = test system: Ps. aeruginosa ATCC 27853; details: Pseudomonas aeruginosa, ATCC27853, Gram Negative
Excerpt: as §1

[5] = test system: Staph. aureus 82; details: Staphylococcus aureus
Excerpt: as §1

[6] = test system: Staph. aureus Evans; details: Staphylococcus aureus
Excerpt: as §1

[7] = test system: Proteus vulgaris ATCC 6380; details: ATCC6380
Excerpt: as §1

[8] = test system: E. coli B; details: Escherichia coli, Gram Negative
Excerpt: as §1

[9] = test system: Staphylococcus aureus Smith
Excerpt: as §1

[10] = test system: Ps. aeruginosa 56; details: Pseudomonas aeruginosa, Gram Negative
Excerpt: as §1

[11] = test system: E. coli 1573E; details: Escherichia coli
Excerpt: as §1

[12] = test system: E. coli HMS1; details: Escherichia coli
Excerpt: as §1

[13] = test system: Enterobacter cloacae P99
Excerpt: as §1

[14] = test system: Staph. pyogenes 4
Excerpt: as §1

[15] = test system: Candida albicans 155; details: Gram Positive and Others
Excerpt: as §1

[16] = test system: Ps. aeruginosa 1937E; details: Pseudomonas aeruginosa, Gram Negative
Excerpt: as §1

[17] = test system: E. coli 1269B; details: Escherichia coli, Gram Negative
Excerpt: as §1

[18] = test system: Prot. mirabilis 90; details: Proteus mirabilis
Excerpt: as §1

[19] = test system: E. coli TEM-1a; details: Escherichia coli, TEM1A
Excerpt: as §1

[20] = test system: Staph. aureus 3037B; details: Staphylococcus aureus
Excerpt: as §1

[21] = test system: Staph. aureus ATCC 25923; details: Staphylococcus aureus, ATCC25923, Gram Positive and Others
Excerpt: as §1

[22] = test system: Ps. aeruginosa 1973 E; details: Pseudomonas aeruginosa, Gram Negative
Excerpt: as §1

[23] = test system: Str. pneumoniae N82-012-MC; details: Streptococcus pneumoniae, N82012MC
Excerpt: as §1

[24] = test system: Prot. mirabilis 620A; details: Proteus mirabilis
Excerpt: as §1

[25] = test system: Staph. aureus 404; details: Staphylococcus aureus
Excerpt: as §1

[26] = test system: K. oxytoca 1082EN; details: Klebsiella oxytoca
Excerpt: as §1

[27] = test system: E. coli 1894 E; details: Escherichia coli
Excerpt: as §1

[28] = test system: Staph. aureus ATCC 29213; details: Staphylococcus aureus, ATCC29213
Excerpt: as §1

[29] = test system: Prot. mirabilis 503-1136; details: Proteus mirabilis, 5031136
Excerpt: as §1

[30] = test system: Serratia marcescens SM
Excerpt: as §1

[31] = test system: E. coli 1527E; details: Escherichia coli, Gram Negative
Excerpt: as §1

[32] = test system: Ser. marcescens MA; details: Serratia marcescens, Gram Negative
Excerpt: as §1

[33] = test system: Staph. aureus 3647B; details: Staphylococcus aureus
Excerpt: as §1

[34] = test system: E. coli 2721B; details: Escherichia coli
Excerpt: as §1

[35] = test system: Citrobacter freundii BS-16; details: BS16
Excerpt: as §1

[36] = test system: Pseudomonas aeruginosa 5712; details: Gram Negative
Excerpt: as §1

[37] = test system: E. coli 2722B; details: Escherichia coli, Gram Negative
Excerpt: as §1

[38] = test system: E. coli Leo HA2; details: Escherichia coli, LEOHA2, Gram Negative
Excerpt: as §1

[39] = test system: Staph. aureus 95; details: Staphylococcus aureus
Excerpt: as §1

[40] = Staph. aureus 82, Gram Positive and Others, read-out: MIC
[41] = Proteus vulgaris ATCC 6380, constitutive ß-lactamase producer, Gram Negative, read-out: MIC
[42] = Staphylococcus aureus Smith, Gram Positive and Others, read-out: MIC
[43] = E. coli 1573E, Gram Negative, read-out: MIC
[44] = E. coli HMS1, Gram Negative, read-out: MIC
[45] = Staph. aureus 3037B, Gram Positive and Others, read-out: MIC
[46] = K. oxytoca 1082EN, Gram Negative, read-out: MIC
[47] = E. coli 1894 E, Gram Negative, read-out: MIC
[48] = Staph. aureus ATCC 29213, Gram Positive and Others, read-out: MIC
[49] = Prot. mirabilis 503-1136, Gram Negative, read-out: MIC
[50] = E. coli 2721B, Gram Negative, read-out: MIC
[51] = Citrobacter freundii BS-16, constitutive ß-lactamase producer, Gram Negative, read-out: MIC
[52] = Ps. aeruginosa 56-1B, Gram Negative, read-out: MIC
[53] = Staph. aureus Evans, Gram Positive and Others, read-out: MIC
[54] = Staph. pyogenes 4, Gram Positive and Others, read-out: MIC
[55] = Prot. mirabilis 90, Gram Negative, read-out: MIC
[56] = Str. pneumoniae N82-012-MC, Gram Positive and Others, read-out: MIC
[57] = Serratia marcescens SM, constitutive ß-lactamase producer, Gram Negative, read-out: MIC

N#CCC(=O)N[C@@H]1C(=O)N2C(C(=O)O)=C(COC(=O)N[C@H]3CCN(c4c(F)cc5c(=O)c(C(=O)O)cn(C6CC6)c5c4F)C3)CS[C@H]12 [Formula Iba, [6R-[3(S^*), 6 alpha, 7 beta]]-3-[[[[[1-(3-Carboxy-1-cyclopropyl-6,8-difluoro-1,4-dihydro-4-oxo-7-quinolinyl-3-pyrrolidinyl]-amino]carbonyl]oxy]methyl]-7-[(cyanoacetyl)amino]-8-oxo-5-thia 1-azabicyclo[4.2.0]oct-2-ene-2-carboxylic acid monosodium salt]
MIC [1]: 0.5 µg/mL
MIC [2]; 4: 0.0313 µg/mL
MIC [3]: 0.125 µg/mL
MIC [4]: 1 µg/mL
MIC [5, 40]: 0.0625 µg/mL
MIC [6]: 0.0313 µg/mL
MIC [7, 41]: 0.0625 µg/mL
MIC [8]: ≤ 0.0156 µg/mL
MIC [9, 42]: 0.0625 µg/mL
MIC [10]: 0.25 µg/mL
MIC [11, 43]: ≤ 0.0156 µg/mL
MIC [12, 44]: ≤ 0.0156 µg/mL
MIC [13]: ≤ 0.0156 µg/mL
MIC [14]; 4: 0.0313 µg/mL
MIC [15]: > 128 µg/mL
MIC [16]: 0.25 µg/mL
MIC [17]: ≤ 0.0156 µg/mL
MIC [18]; 90: 0.125 µg/mL
MIC [19]: 0.0313 µg/mL
MIC [20, 45]: 0.0625 µg/mL
MIC [21]: 0.0625 µg/mL
MIC [22]: 0.25 µg/mL
MIC [23]: 0.125 µg/mL
MIC ([24]; Prot. mirabilis 620A, Gram Negative, read-out: MIC): 0.0625 µg/mL
MIC [25]; 404: 0.0313 µg/mL
MIC [26, 46]: ≤ 0.0156 µg/mL
MIC [27, 47]: ≤ 0.0156 µg/mL
MIC [28, 48]: 0.0625 µg/mL
MIC [29, 49]: 0.0625 µg/mL
MIC ([30]; Serratia marcescens): 0.125 µg/mL
MIC [31]: ≤ 0.0156 µg/mL
MIC [32]: 4 µg/mL
MIC ([33]; 3647B): 0.0313 µg/mL
MIC [34, 50]: ≤ 0.0156 µg/mL
MIC [35, 51]: ≤ 0.0156 µg/mL
MIC [36]: 2 µg/mL
MIC [37]: ≤ 0.0156 µg/mL
MIC [38]: ≤ 0.0156 µg/mL
MIC [39]; 95: 0.0313 µg/mL

O=C(Cc1cccs1)N[C@@H]1C(=O)N2C(C(=O)O)=C(COC(=O)N3CCN(c4c(F)cc5c(=O)c(C(=O)O)cn(C6CC6)c5c4F)CC3)CS[C@H]12 [Formula Ia, [6R,7R]-3-[[[[4-(3-Carboxy-1-cyclopropyl-6,8-difluoro-1,4-dihydro-4-oxo-7-quinolinyl)-1-piperazinyl]carbonyl]-oxy]-methyl]-8-oxo-7-[(2-thienylacetyl)amino]-5-thia-1-azabicyclo-[4.2.0]oct-2-ene-2-carboxylic acid]
MIC [1]: 2 µg/mL
MIC ([2]; E. coli 4, Gram Negative, read-out: MIC): 0.125 µg/mL
MIC [3, 52]: 0.25 µg/mL
MIC [4]: 1 µg/mL
MIC [5, 40]: 0.125 µg/mL
MIC [6, 53]: 0.5 µg/mL
MIC [7, 41]: 0.125 µg/mL
MIC [8]: 0.0313 µg/mL
MIC [9, 42]: 0.25 µg/mL
MIC [10]: 1 µg/mL
MIC ([11]; 1573E): 0.0625 µg/mL
MIC [12, 44]: ≤ 0.0156 µg/mL
MIC [13]: ≤ 0.0156 µg/mL
MIC [14, 54]: ≤ 0.0156 µg/mL
MIC [15]: > 128 µg/mL
MIC [16]: 1 µg/mL
MIC [17]: 0.0313 µg/mL
MIC [18, 55]: 0.5 µg/mL
MIC [19]: 0.0625 µg/mL
MIC [20, 45]: 1 µg/mL
MIC [21]: 0.25 µg/mL
MIC [22]: 1 µg/mL
MIC [23, 56]: 0.0313 µg/mL
MIC ([24]; 620A): 0.0625 µg/mL
MIC ([25]; Staph. aureus 404, Gram Positive and Others, read-out: MIC): 0.5 µg/mL
MIC ([26]; 1082EN): 0.0625 µg/mL
MIC ([27]; 1894E): 0.0625 µg/mL
MIC [28, 48]: 0.5 µg/mL
MIC [29, 49]: 0.5 µg/mL
MIC [30, 57]: 0.5 µg/mL
MIC [31]: ≤ 0.0156 µg/mL
MIC [32]: 16 µg/mL
MIC ([33]; Staph. aureus 3647B, Gram Positive and Others, read-out: MIC): 0.5 µg/mL
MIC [34, 50]: 0.0313 µg/mL
MIC [35, 51]: 0.0313 µg/mL
MIC [36]: 2 µg/mL
MIC [37]: ≤ 0.0156 µg/mL
MIC [38]: ≤ 0.0156 µg/mL
MIC ([39]; Staph. aureus 95, Gram Positive and Others, read-out: MIC): 0.5 µg/mL

N#CCC(=O)N[C@@H]1C(=O)N2C(C(=O)O)=C(COC(=O)N[C@@H]3CCN(c4c(F)cc5c(=O)c(C(=O)O)cn(C6CC6)c5c4F)C3)CS[C@H]12 [Formula Ibb, [6R-[3(R^*), 6 alpha, 7 beta]]-3-[[[[[1-(3-Carboxy-1-cyclopropyl-6,8-difluoro-1,4-dihydro-4-oxo-7-quinolinyl-3-pyrrolidinyi]amino]carbonyl]oxy]methyL]-7-[(cyanoacetyl)amino]-8-oxo-5-thia-1-azabicyclo[4.2.0]oct-2-ene-2-carboxylic acid monosodium salt]
MIC [1]: 2 µg/mL
MIC [2]; 4: 0.125 µg/mL
MIC [3, 52]: 0.5 µg/mL
MIC [4]: 2 µg/mL
MIC [5]; 82: 0.125 µg/mL
MIC [6, 53]: 0.0625 µg/mL
MIC ([7]; Proteus vulgaris): 0.125 µg/mL
MIC [8]: 0.0313 µg/mL
MIC ([9]; Staphylococcus aureus): 0.125 µg/mL
MIC [10]: 1 µg/mL
MIC [11, 43]: 0.0625 µg/mL
MIC ([12]; HMS1): 0.0313 µg/mL
MIC [13]: ≤ 0.0156 µg/mL
MIC [14, 54]: 0.0625 µg/mL
MIC [15]: > 128 µg/mL
MIC [16]: 1 µg/mL
MIC [17]: 0.0625 µg/mL
MIC [18, 55]: 0.5 µg/mL
MIC [19]: 0.125 µg/mL
MIC ([20]; 3037B): 0.125 µg/mL
MIC [21]: 0.25 µg/mL
MIC [22]: 1 µg/mL
MIC [23, 56]: 0.25 µg/mL
MIC ([24]; 620A): 0.125 µg/mL
MIC [25]; 404: 0.125 µg/mL
MIC [26, 46]: 0.0625 µg/mL
MIC [27, 47]: 0.0625 µg/mL
MIC [28]: 0.125 µg/mL
MIC [29]: 0.125 µg/mL
MIC [30, 57]: 0.25 µg/mL
MIC [31]: 0.0625 µg/mL
MIC [32]: 8 µg/mL
MIC ([33]; 3647B): 0.125 µg/mL
MIC ([34]; 2721B): 0.0313 µg/mL
MIC ([35]; Citrobacter freundii): 0.0313 µg/mL
MIC [36]: 4 µg/mL
MIC [37]: ≤ 0.0156 µg/mL
MIC [38]: ≤ 0.0156 µg/mL
MIC [39]; 95: 0.125 µg/mL
